Several values for one entry are separate records, joined by “and”; a condition that tells them apart may be missing. Equal values may be shown once.
Key:
S. aureus ATCC25923 = experiment: MIC by microdilution, S. aureus ATCC25923; type: cell-based, Staphylococcus aureus; details: S. aureus ATCC25923 (MecA negative, wild-type), Mueller-Hinton broth, in duplicate
How it was run: (§1)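 Broth microdilution per CLSI document M07-A10, Mueller-Hinton medium, each MIC run in duplicate. Strains include E. coli ATCC25922 (wild-type), S. epidermidis ATCC35984 (MecA positive) and S. aureus ATCC700699 (MecA positive, glycopeptide resistant), within a mixed panel of susceptible and resistant Gram-positive/Gram-negative bacteria.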

S. aureus ATCC29213 = experiment: MIC by microdilution, S. aureus ATCC29213; type: cell-based, Staphylococcus aureus; details: S. aureus ATCC29213 (MecA negative, wild-type), Mueller-Hinton broth, in duplicate
How it was run: as §1

S. aureus ATCC700699 = experiment: MIC by microdilution, S. aureus ATCC700699; type: cell-based, Staphylococcus aureus; set-up: unit not given here; details: S. aureus ATCC700699 (MecA positive, glycopeptide resistant), in duplicate
How it was run: as §1

S. aureus ST20131365 = experiment: MIC by microdilution, S. aureus ST20131365; type: cell-based, Staphylococcus aureus; details: S. aureus ST20131365 (MecA positive, glycopeptide resistant), in duplicate
How it was run: as §1

S. epidermidis ATCC14990 = experiment: MIC by microdilution, S. epidermidis ATCC14990; type: cell-based, Staphylococcus epidermidis; details: S. epidermidis ATCC14990 (MecA negative, wild-type), in duplicate
How it was run: as §1

S. epidermidis ATCC35984 = experiment: MIC by microdilution, S. epidermidis ATCC35984; type: cell-based, Staphylococcus epidermidis; details: S. epidermidis ATCC35984 (MecA positive), in duplicate
How it was run: as §1

[1] = test system: S. epidermidis ST20140436; experiment: MIC by microdilution, S. epidermidis ST20140436; type: cell-based, Staphylococcus epidermidis; details: S. epidermidis ST20140436 (MecA positive, glycopeptide resistant), in duplicate
How it was run: as §1

[2] = test system: S. epidermidis ST20150446; experiment: MIC by microdilution, S. epidermidis ST20150446; type: cell-based, Staphylococcus epidermidis; details: S. epidermidis ST20150446 (MecA positive, glycopeptide resistant), in duplicate
How it was run: as §1

E. faecalis JH2-2 = experiment: MIC by microdilution, E. faecalis JH2-2; type: cell-based, Enterococcus faecalis; set-up: unit not given here; details: E. faecalis JH2-2 (wild-type), in duplicate
How it was run: as §1

E. faecalis UCN41 = experiment: MIC by microdilution, E. faecalis UCN41; type: cell-based, Enterococcus faecalis; set-up: unit not given here; details: E. faecalis UCN41 (VanA positive, glycopeptide resistant), in duplicate
How it was run: as §1

E. faecalis V583 = experiment: MIC by microdilution, E. faecalis V583; type: cell-based, Enterococcus faecalis; details: E. faecalis V583 (VanB positive, glycopeptide resistant), in duplicate
How it was run: as §1

E. faecium ATCC19434T = experiment: MIC by microdilution, E. faecium ATCC19434T; type: cell-based, Enterococcus faecium; set-up: unit not given here; details: E. faecium ATCC19434T (wild-type), in duplicate
How it was run: as §1

E. faecium BM4147 = experiment: MIC by microdilution, E. faecium BM4147; type: cell-based, Enterococcus faecium; set-up: unit not given here; details: E. faecium BM4147 (VanA positive, glycopeptide resistant), in duplicate
How it was run: as §1

E. faecium AUS0004 = experiment: MIC by microdilution, E. faecium AUS0004; type: cell-based, Enterococcus faecium; details: E. faecium AUS0004 (VanB positive, glycopeptide resistant), in duplicate
How it was run: as §1

E. coli ATCC25922 = experiment: MIC by microdilution, E. coli ATCC25922; type: cell-based, Escherichia coli; details: E. coli ATCC25922 (wild-type), in duplicate
How it was run: as §1

[3] = test system: Clostridium difficile ATCC700057; experiment: MIC by microdilution, Clostridium difficile; type: cell-based; details: strain ATCC70057 [sic] (Tables 1-2) / ATCC700057 (Tables 3-10), in duplicate
[4] = test system: panel of Gram-positive and Gram-negative strains; experiment: Antibacterial profile on the selected panel of strains; type: cell-based; details: for antimicrobial / antibacterial activity (in words): summary of Tables 1-12
How it was run: as §1

human hepatocyte = experiment: Human hepatocyte cytotoxicity profile; type: cell-based; details: human hepatocytes
Experimental: FIG. 1 is a diagram representing the TMB3 human hepatocyte cytotoxicity between 7 to 25 μM (FIG. 1 A) and the ampicillin human hepatocyte cytotoxicity between 7 to 25 μM (control) (FIG. 1B. In the diagram, the abscissa represents the concentration in Log per μM and the ordinate the viability of the cells in percentage compared to the human hepatocyte culture without ampicillin trihydrate or TMB3.
The human hepatocyte cytotoxicity profile has been evaluated between 7 and 25 μM for TMB derivatives as a toxicity appeared from 25 μM for the initial hit TMB3 during a preliminary assessment.

| Structure (SMILES) | Minimal Inhibitory Concentration (MIC) (S. aureus ATCC25923) | Minimal Inhibitory Concentration (MIC) (S. aureus ATCC29213) | Minimal Inhibitory Concentration (MIC) (S. aureus ATCC700699) | Minimal Inhibitory Concentration (MIC) (S. aureus ST20131365) | Minimal Inhibitory Concentration (MIC) (S. epidermidis ATCC14990) | Minimal Inhibitory Concentration (MIC) (S. epidermidis ATCC35984) | Minimal Inhibitory Concentration (MIC) [1] | Minimal Inhibitory Concentration (MIC) [2] | Minimal Inhibitory Concentration (MIC) (E. faecalis JH2-2) | Minimal Inhibitory Concentration (MIC) (E. faecalis UCN41) | Minimal Inhibitory Concentration (MIC) (E. faecalis V583) | Minimal Inhibitory Concentration (MIC) (E. faecium ATCC19434T) | Minimal Inhibitory Concentration (MIC) (E. faecium BM4147) | Minimal Inhibitory Concentration (MIC) (E. faecium AUS0004) | Minimal Inhibitory Concentration (MIC) (E. coli ATCC25922) | Minimal Inhibitory Concentration (MIC) [3] | antimicrobial / antibacterial activity (in words) [4] | MICs measured, as range of concentrations ([4]; depending on the bacteria strains) [µM] | concentration at which cytotoxicity appears (human hepatocyte; evaluated between 7 and 25 μM) [µM] | concentration from which toxicity appeared (human hepatocyte; preliminary assessment) [µM] |
| --- | --- | --- | --- | --- | --- | --- | --- | --- | --- | --- | --- | --- | --- | --- | --- | --- | --- | --- | --- | --- |
| CC[P+](CC)(CC)[Au-][c]1nn[nH]c1COC(=O)NC(C(=O)O)c1ccc(O)cc1 (stereo not drawn) [TMB26] | 0.125 | 0.125 | 0.25 | 0.125 | ≤0.06 | ≤0.06 | ≤0.06 | ≤0.06 | 0.25 | 0.25 | 0.5 | 0.25 | 0.5 | 0.5 | >8 | 0.125 | have antimicrobial activity |  |  |  |
| CC1(C)S[C@@H]2[C@H](NC(=O)[C@H](NC(=O)OCc3cnnn3Cc3ccccc3)c3ccccc3)C(=O)N2[C@H]1C(=O)O [TMB7] | 1 | 1 | >8 | >8 | 1 | >8 | 8 | >8 | 1 and 2 | 4 | 2 | 8 | >8 | >8 | >8 | 4 | do not show an antibacterial activity |  |  |  |
| CC[P+](CC)(CC)[Au-][c]1nn[nH]c1CC(N)C(=O)O (stereo not drawn) [TMB37] | 0.125 | 0.125 and 0.25 | 0.25 | 0.25 | ≤0.06 | ≤0.06 | 0.125 | 0.125 | 0.5 | 0.5 | 0.5 | 0.5 | 0.5 | 0.5 | >8 | ≤0.06 | have antimicrobial activity |  |  |  |
| CC1(C)S[C@@H]2[C@H](NC(=O)[C@H](NC(=O)CCc3cn(Cc4ccccc4)nn3)c3ccccc3)C(=O)N2[C@H]1C(=O)O [TMB9] | 1 | 1 | >8 | >8 | 1 | >8 | 8 | 8/>8 | 2 | 8 | 4 | 8 | >8 | >8 | >8 | 2-4 | do not show an antibacterial activity |  |  |  |
| CC[P+](CC)(CC)[Au-][c]1nn[nH]c1COC(=O)NC(C(=O)NC1C(=O)N2C1SC(C)(C)C2C(=O)O)c1ccccc1 (stereo not drawn) [TMB3] | 0.125 and 0.25 | 0.125 and 0.25 | 0.125 and 0.25 | 0.125 and 0.25 | ≤0.06 | ≤0.06 |  |  | 0.5 and 1 | 1 and 0.5 | 1 | 1 and 0.5 | 2 and 1 | 1 | >8 |  | have antimicrobial activity | 0.08 to 0.63 | 20 | 25 |
| CC[P+](CC)(CC)[Au-][c]1nn[nH]c1COC(=O)N[C@H](Cc1c[nH]c2ccccc12)C(=O)O [TMB30] | 0.25 | 0.25 | 0.25 | 0.25 | ≤0.06 | ≤0.06 | 0.125 | 0.125 | 0.5 | 0.5 | 0.5 | 0.5 | 1 | 1 | >8 | 0.125 | have antimicrobial activity |  |  |  |

From US20210284668A1, “GOLD (I)-PHOSPHINE 1,2,3-TRIAZOLE DERIVATIVES WITH ANTIBIOTIC PROPERTIES” (Centre National de la Recherche Scientifique, priority 2018, published 2021)
